Laboratory results from patent US11560455B2, “Method for rapid gelation of silk fibroin solution under physiological conditions” (SOOCHOW UNIVERSITY, priority 2017, dated 2023).

System: Human umbilical vein endothelial cells (HUVECs)
Test: Cell viability by CCK-8 assay
Type: cell-based
Conditions: 24 h, NapFF 10.0-200.0 μM, silk fibroin 0.1-2.0%, FIG. 9
Method: The cell viability was detected by CCK-8 assay. Human umbilical vein endothelial cells (HUVECs) were dispersed in a 96-well plate (at a cell concentration of 4000 cells/well) and cultured for 24 h in a 5% CO2 atmosphere at 37° C. The previous medium was replaced with a medium containing different concentrations of NapFF (10.0 μM, 20.0 μM, 50.0 μM, 100.0 μM, and 200.0 μM) and silk fibroin solutions (0.1%, 0.2%, 0.5%, 1.0%, and 2.0%), which was in turn replaced with a CCK-8 solution after 24 h. Finally, the optical density value (OD value) of the solution at 450 nm was measured on a microplate reader. The cell viability is expressed as percentage of the number of control (untreated) cells. The cell viability of the control group was set to 100% by default, and all experiments were performed in 5 replications.

`O=C(Cc1ccc2ccccc2c1)N[C@@H](Cc1ccccc1)C(=O)N[C@@H](Cc1ccccc1)C(=O)O` [NapFF, 2-naphthaleneacetic acid-phenylalanine-phenylalanine] was tested, and the “Cytotoxicity (cell viability, CCK-8)” value was “good biocompatibility”.
